Assay results reported in paper PMC9125540 (Virology Journal, 2022).
Structures can show the parent of a compound that is named as a salt. Where two headings read alike, the source gives them in different places.

How the values were obtained:
IAV M gene = format: cell-based, influenza A virus
IL-6 [1] = experiment: ELISA cytokine protein quantification, IL-6; format: cell-based, Canine
Description: (§1) MDCK cells were treated as mentioned above. Untreated cells were considered as the negative control. Cell-free supernatant was harvested following 72 h infection period and stored at − 80 °C for the cytokine analysis. In order to investigate the effect of viral infection and anionic compounds on the production of inflammatory cytokines such as IL-6, CCL2 and TNF-α as well as anti-inflammatory cytokine proteins IFN-β1 and IL-27, ELISA method was utilized. Quantitative sandwich Picokine ELISA kits (Boster Biological Technology, CA, USA) were used to detect IL-6, TNF-α and IL-27 cytokine proteins according to the manufacturer's instructions. The CCL2 and IFN-β were evaluated by sandwich Ready-SET-Go kit (Invitrogen, USA) and sandwich geneILNB1 kit (EIAab Science Co, China) according to the manufacturers’ instructions, respectively. The concentrations of the cytokines were calculated according to the corresponding reaction standard formula.
(§2) The cytokine protein levels in supernatants of MDCK cell culture at 72 h after exposure were calculated according to the reaction standard formula.
(§3) To calculate the concentration of the cytokines in cell free supernatants, firstly, the standards optical densities were measured and the standard curves were plotted. The equations of standard curves were used to estimate protein concentration in the samples.

IL-27 [2] = experiment: ELISA cytokine protein quantification, IL-27; format: cell-based, Canine
Description: as §1, §2, §3

MDCK cells = experiment: MTT cytotoxicity assay of the compounds (CC50, NCTC, selectivity index); conditions: MDCK cells, MTT, 48 h
Description: (§4) The cytotoxic effects of the anionic compounds on the viability of MDCK cells was measured by MTT [3-(4, 5-dimethylthiazol-2ol) 2, 5 diphenyl tetrazolium bromide] assay. Briefly, the confluent 96-well plate of MDCK cells were exposed to twofold serial dilutions of the compounds (in triplicates), 100 μl/well, and incubated for 48 h. After the incubation period, the supernatants were removed and 100 μl of 1X MTT solution (100 μl/well) was added to each well. The plates were incubated for 4 h at 37 °C. Then, 100 μl of DMSO (Samchun, Korea) was added to dissolve formazan crystals. Color adsorption in the solution was measured using an enzyme-linked immunosorbent assay (ELISA) reader (StataFax 2100, USA) at 570 nm to calculate the 50% cytotoxic concentration (CC50). The cells without treatment were used as negative control. The percentage of toxicity was calculated using the following formula:
(§5) Toxicity (%) = [100 − (ODT/ODC) × 100], where ODT and ODC refer to the absorbance of the test substance and control, respectively [34]. The 50% cytotoxic concentration (CC50) was defined as the cytotoxic concentration of compounds by regression analysis.
(§6) The non-cytotoxic concentration (NCTC) of the compounds was also determined using the same procedure and used for the antiviral assays. […] The cells with no treatment were considered as negative control.
(§7) The selectivity index (SI) is relative safety of a compound and it was obtained by dividing CC50 by NCTC in the same units.

TNF-α [3] = experiment: ELISA cytokine protein quantification, TNF-α; format: cell-based, Canine
Description: as §1, §2, §3

IFN- β = experiment: ELISA cytokine protein quantification, IFN-β; format: cell-based, Canine
Description: as §1, §2, §3

CCL2 [4] = experiment: ELISA cytokine protein quantification, CCL2; format: cell-based, Canine
Description: as §1, §2, §3

CCL2 [5] = format: cell-based, Canine; conditions: combination treatment (co-penetration) with H1N1, 72 h; H1N1 alone 22.123 fold
IFN-β1 = format: cell-based, Canine; conditions: combination treatment (co-penetration) with H1N1, 72 h; H1N1 alone 0.038 fold
IL-6 [6] = format: cell-based, Canine; conditions: combination treatment (co-penetration) with H1N1, 72 h; H1N1 alone 16.622 fold
IL-27 [7] = format: cell-based, Canine; conditions: combination treatment (co-penetration) with H1N1, 72 h; H1N1 alone 0.004 fold
TNF-α [8] = format: cell-based, Canine; conditions: combination treatment (co-penetration) with H1N1, 72 h; H1N1 alone 191.00 fold
[9] = MTT cytotoxicity assay of the compounds (CC50, NCTC, selectivity index); conditions: dog
Description: as §4, §5, §6, §7

[10] = co-penetration with H1N1, MDCK supernatant, 72 h, H1N1 alone 941.67 ± 4.71
[11] = co-penetration with H1N1, MDCK supernatant, 72 h, H1N1 alone 523.00 ± 2.41
[12] = co-penetration with H1N1, MDCK supernatant, 72 h, H1N1 alone 26.25 ± 1.77
[13] = co-penetration with H1N1, MDCK supernatant, 72 h, H1N1 alone 1243.79 ± 5.58

O=C(O)CC(O)(CC(=O)O)C(=O)O [Citrate, sodium citrate]
Ct value, IAV M gene (IAV M gene): 22.45 ± 0.75 | IL-6 cytokine protein concentration (mean ± SD) (IL-6 [1]; co-penetration with H1N1, MDCK supernatant, 72 h, H1N1 alone 171.78 ± 0.17, listed as Cit): 126.60 ± 0.17 pg/mL | IL-27 cytokine protein concentration (mean ± SD) (IL-27 [2]; [10]): 2055.00 ± 0.00 pg/mL | IL-27 cytokine protein concentration (mean ± SD) (IL-27 [2]; co-penetration with H1N1, MDCK supernatant, 72 h, H1N1 alone 941.67 ± 4.71, listed as Cit): 2055.00 ± 0.00 pg/mL | NCTC (non-cytotoxic concentration) (MDCK cells): 3.00 ± 0.00 mg/mL | NCTC (non-cytotoxic concentration) (MDCK cells; listed as citrate): 3 mg/mL | TNF-α cytokine protein concentration (mean ± SD) (TNF-α [3]; [11]): 253.45 ± 0.48 pg/mL | IFN- β cytokine protein concentration (mean ± SD) (IFN- β; [12]): 70.62 ± 2.06 pg/mL | CCL2 cytokine protein concentration (mean ± SD) (CCL2 [4]; [13]): 446.95 ± 0.37 pg/mL

CC(=O)[O-].[Na+] [Acetate, sodium acetate]
Ct value, IAV M gene (IAV M gene): 20.70 ± 0.30 | IL-6 cytokine protein concentration (mean ± SD) (IL-6 [1]): 110.64 ± 0.08 pg/mL | IL-27 cytokine protein concentration (mean ± SD) (IL-27 [2]): 1938.33 ± 0.00 pg/mL | percentage of change of IL-27 protein relative to H1N1 (mean ± SD) (IL-27 [2]; co-penetration, 72 h): 105.84 ± 1.03 | CC50 (MDCK cells): 28950 ± 4320 µg/mL | NCTC (non-cytotoxic concentration) (MDCK cells): 3.00 ± 0.00 mg/mL | NCTC (non-cytotoxic concentration) (MDCK cells; listed as acetate): 3 mg/mL | TNF-α cytokine protein concentration (mean ± SD) (TNF-α [3]): 222.20 ± 0.64 pg/mL | percentage of change of TNF-α protein relative to H1N1 (mean ± SD) (TNF-α [3]; co-penetration, 72 h): -57.51 ± 0.32 | CCL2 relative expression (CCL2 [5]): 0.094 fold | IFN- β1 relative expression (IFN-β1): 0.049 fold | IL-6 relative expression (IL-6 [6]): 0.020 fold | IFN- β cytokine protein concentration (mean ± SD) (IFN- β): 68.96 ± 2.06 pg/mL | percentage of change of IFN- β protein relative to H1N1 (mean ± SD) (IFN- β; co-penetration, 72 h): 163.03 ± 9.86 | CCL2 cytokine protein concentration (mean ± SD) (CCL2 [4]): 338.26 ± 0.00 pg/mL | percentage of change of CCL2 protein relative to H1N1 (mean ± SD) (CCL2 [4]; co-penetration, 72 h): -72.80 ± 0.12 | IL-27 relative expression (IL-27 [7]): 0.099 fold | TNF-α relative expression (TNF-α [8]): 4.83 fold

NC12CC3CC(CC(C3)C1)C2 [Amantadine hydrochloride, reference compound]
NCTC (non-cytotoxic concentration) (MDCK cells): 0.10 ± 0.00 mg/mL | CC50 at 48 h [9]: 200 ± 1530 µg/mL

O=C1O[C@H]([C@@H](O)CO)C(O)=C1O [Ascorbate, ascorbic acid]
Ct value, IAV M gene (IAV M gene; combination treatment with H1N1, supernatants of 48 h treatments, H1N1 alone 12.76 ± 0.24): No Ct value was detected | IL-6 cytokine protein concentration (mean ± SD) (IL-6 [1]; co-penetration with H1N1, MDCK supernatant, 72 h, H1N1 alone 171.78 ± 0.17): 38.05 ± 0.17 pg/mL | IL-27 cytokine protein concentration (mean ± SD) (IL-27 [2]; [10]): 1833.33 ± 2.36 pg/mL | TNF-α cytokine protein concentration (mean ± SD) (TNF-α [3]; [11]): 284.25 ± 0.32 pg/mL | IFN- β cytokine protein concentration (mean ± SD) (IFN- β; [12]): 73.75 ± 1.77 pg/mL | IFN- β cytokine protein concentration (mean ± SD) (IFN- β; co-penetration with H1N1, MDCK supernatant, 72 h, H1N1 alone 26.25 ± 1.77, listed as Asc): 73.75 ± 1.77 pg/mL | CCL2 cytokine protein concentration (mean ± SD) (CCL2 [4]; [13]): 309.05 ± 1.86 pg/mL | CCL2 cytokine protein concentration (mean ± SD) (CCL2 [4]; co-penetration with H1N1, MDCK supernatant, 72 h, H1N1 alone 1243.79 ± 5.58, listed as Asc): 309.05 ± 1.86 pg/mL
